Measured values as given in the NIST ThermoML archive (doi:10.1016/j.jct.2013.08.012).
± gives the expanded uncertainty stated by the source.

Assay: molar enthalpy of vaporization or sublimation
Conditions: 298.15 K; Crystal; Static calorimetry

molar enthalpy	SMILES
78.7 ± 1.7 kJ/mol	O=C1Cc2ccccc2O1 [2-coumaranone]
85.8 ± 1.7 kJ/mol	O=C1COc2ccccc21 [3-coumaranone]
